This is an account of results in US8765748B2, “Indazolyl, benzimidazolyl, benzotriazolyl substituted indolinone derivatives as kinase inhibitors useful in the treatment of cancer” (University Health Network, priority 2007, dated 2014).

What all share (assay type): biochemical
One assay deals with T1, Aurora A (Homo sapiens, UniProt O14965).
T1 construct: purchased Invitrogen PV3612
T1 sequence (O14965 1-403): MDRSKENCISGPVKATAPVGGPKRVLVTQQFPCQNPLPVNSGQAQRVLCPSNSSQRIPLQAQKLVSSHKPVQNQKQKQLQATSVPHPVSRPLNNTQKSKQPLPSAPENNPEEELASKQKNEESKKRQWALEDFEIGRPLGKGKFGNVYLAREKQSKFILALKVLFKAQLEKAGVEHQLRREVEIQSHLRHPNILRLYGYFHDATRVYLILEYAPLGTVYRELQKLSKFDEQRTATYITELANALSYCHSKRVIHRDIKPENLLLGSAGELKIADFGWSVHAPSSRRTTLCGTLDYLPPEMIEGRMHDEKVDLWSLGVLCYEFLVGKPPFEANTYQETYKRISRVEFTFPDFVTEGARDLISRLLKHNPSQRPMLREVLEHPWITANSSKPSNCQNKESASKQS
As to the kind of experiment: Aurora A Inhibition Assay (Z-Lyte). The note with it: for inhibition at 10 µM: 10 μM compound, read-out: Aurora A relative inhibition percentage at a dose of 10 μM; for IC50: 20 μM ATP, 12 nM Aurora A, read-out: Aurora A IC50 Ranges; for inhibition at 1 µM: 1 μM compound, read-out: Aurora A relative inhibition percentage at a dose of 1 μM. Here is the method:
Aurora A inhibition was determined using the Z-Lyte assay kit from Invitrogen. The assay was performed using the recommended manufacturer's instructions with 20 μM ATP and 12 nM Aurora A (Invitrogen cat #PV3612). The % inhibition values were determined according to the manufacturer's directions and IC50 values were obtained using a non-linear 4 point logistic curve fit (XLfit4, IDBS)

The target of the next assay is T2, Aurora B (Homo sapiens, UniProt Q96GD4).
T2 construct: purchased Invitrogen PV3970
The assay can be described thus: Aurora B Inhibition Assay (Z-Lyte). The note with it: 128 μM ATP, 28 nM Aurora B; read-out: Aurora B IC50 Ranges. Here is the method: Aurora B inhibition was determined using the Z-Lyte assay kit from Invitrogen. The assay was performed using the recommended manufacturer's instructions with 128 μM ATP and 28 nM Aurora B (Invitrogen cat #PV3970). The % inhibition values were determined according to the manufacturer's directions and IC50 values were obtained using a non-linear 4 point logistic curve fit (XLfit4, IDBS)

Another assay has as its target T3, human PLK4 (Homo sapiens, UniProt O00444).
T3 construct: amino terminal GST fusion of residues 1-391 of human PLK4; made in house; host or cells: E. coli
T3 sequence (O00444 1-391): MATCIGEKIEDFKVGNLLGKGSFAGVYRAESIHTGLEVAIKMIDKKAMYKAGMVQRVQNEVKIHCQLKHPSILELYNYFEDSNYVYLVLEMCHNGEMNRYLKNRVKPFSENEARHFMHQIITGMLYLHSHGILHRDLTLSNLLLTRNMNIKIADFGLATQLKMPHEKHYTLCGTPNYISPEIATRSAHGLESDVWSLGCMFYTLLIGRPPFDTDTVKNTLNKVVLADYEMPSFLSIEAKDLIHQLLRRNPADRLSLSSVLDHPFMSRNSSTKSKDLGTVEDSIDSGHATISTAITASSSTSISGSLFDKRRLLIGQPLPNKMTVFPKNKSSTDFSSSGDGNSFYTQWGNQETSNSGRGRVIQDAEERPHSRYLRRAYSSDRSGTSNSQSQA
As to the kind of experiment: PLK4 Inhibition Assay (indirect ELISA). The settings on record: 15 μM ATP, 4 nM GST-PLK4; read-out: PLK4 IC50 Ranges. Here is the method: The protein was purified from clarified cell extracts after induction at 15° C. overnight using glutathione sepharose, gel permeation chromatography, and ion exchange (Resource Q). The resulting protein was dephosphorylated with lambda phosphatase (NEB cat #P0753), and resolved from the phosphatase using gluthione sepharose. The dephosphorylated GST-PLK4 was stored in aliquots at −80° C. until use. PLK4 activity was measured using an indirect ELISA detection system. […] Compounds were pre-incubated in the presence of enzyme for 15 minutes prior to addition of ATP and the activity remaining quantified using the above described activity assay. […] The IC50 value was determined using a non-linear 4 point logistic curve fit (XLfit4, IDBS) with the formula; (A+(B/(1+((x/C)^D)))), where A=background value, B=range, C=inflection point, D=curve fit parameter.

A further assay addresses T4, PLK1 (Homo sapiens, UniProt P53350).
T4 construct: purchased Invitrogen PV3501
As to the kind of experiment: PLK1 Inhibition Assay (Z-Lyte). The note with it: 25 μM ATP, 8 nM PLK1; read-out: PLK1 IC50 Ranges. The protocol: PLK1 inhibition was determined using the Z-Lyte assay kit from Invitrogen (cat #PV3802). […] The % inhibition values were determined according to the manufacturer's directions and IC50 values were obtained using a non-linear 4 point logistic curve fit (XLfit4, IDBS)

In general, inhibition refers to the drop in the measured response relative to a control, in per cent. In general, IC50 refers to the midpoint of a concentration-inhibition curve.

T4 sequence (P53350 whole entry): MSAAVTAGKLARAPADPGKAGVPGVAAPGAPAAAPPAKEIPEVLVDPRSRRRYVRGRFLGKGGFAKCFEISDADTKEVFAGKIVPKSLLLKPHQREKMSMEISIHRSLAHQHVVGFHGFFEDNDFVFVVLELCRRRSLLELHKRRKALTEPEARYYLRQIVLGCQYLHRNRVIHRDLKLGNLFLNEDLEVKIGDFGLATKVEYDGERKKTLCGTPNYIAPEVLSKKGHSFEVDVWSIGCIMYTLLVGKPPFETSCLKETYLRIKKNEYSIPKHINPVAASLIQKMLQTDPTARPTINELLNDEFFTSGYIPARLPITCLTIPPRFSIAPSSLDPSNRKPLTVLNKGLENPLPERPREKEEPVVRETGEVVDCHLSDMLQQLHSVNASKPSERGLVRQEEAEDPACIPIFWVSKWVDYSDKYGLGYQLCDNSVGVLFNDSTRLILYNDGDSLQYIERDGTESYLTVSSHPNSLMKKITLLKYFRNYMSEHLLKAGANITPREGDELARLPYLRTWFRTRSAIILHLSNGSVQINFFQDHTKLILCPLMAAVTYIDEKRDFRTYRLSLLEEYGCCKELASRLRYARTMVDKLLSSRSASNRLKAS
T2 sequence (Q96GD4 whole entry): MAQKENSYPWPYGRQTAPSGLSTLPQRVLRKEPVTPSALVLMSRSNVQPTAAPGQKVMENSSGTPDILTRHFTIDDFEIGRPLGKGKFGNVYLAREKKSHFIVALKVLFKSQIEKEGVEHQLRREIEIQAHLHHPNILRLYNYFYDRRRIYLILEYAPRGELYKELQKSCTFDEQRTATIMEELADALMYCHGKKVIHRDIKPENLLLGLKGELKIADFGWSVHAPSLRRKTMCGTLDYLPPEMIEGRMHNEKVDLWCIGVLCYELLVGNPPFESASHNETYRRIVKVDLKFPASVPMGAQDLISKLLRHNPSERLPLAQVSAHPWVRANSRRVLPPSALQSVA

In the case of `O=C(O)/C=C/c1n[nH]c2cc(C=C3C(=O)Nc4ncccc43)ccc12` (mixture of isomers) [Example A71, (E)-3-(6-((E & Z)-(2-oxo-1H-pyrrolo[2,3-b]pyridin-3(2H)-ylidene)-methyl)-1H-indazol-3-yl)acrylic acid], at Aurora A, the inhibition at 10 µM was over 50%. Further, the IC50 at Aurora B and at human PLK4 was under 5 µM each time.

In the case of `O=C1Nc2ncccc2C1=Cc1ccc2c(/C=C/c3ccc(C(=O)O)cc3)n[nH]c2c1` (mixture of isomers) [Example A146, 4-((E)-2-(6-((E/Z)-(2-oxo-1H-pyrrolo[2,3-b]pyridin-3(2H)-ylidene)methyl)-1H-indazol-3-yl)vinyl)benzoic acid], the IC50 on Aurora A, at Aurora B and on human PLK4 was under 5 µM each time.

Take `COC(=O)c1ccc(/C=C/c2n[nH]c3cc(C=C4C(=O)Nc5ccc(OC)cc54)ccc23)cc1` (mixture of isomers) [Example A142, methyl 4-((E)-2-(6-((E and Z)-(5-methoxy-2-oxoindolin-3-ylidene)methyl)-1H-indazol-3-yl)vinyl)benzoate]: the inhibition at 1 µM at Aurora A is over 50%. Besides, the half-maximal inhibitory concentration (IC50) at Aurora B and at human PLK4 was under 5 µM in each case.

Consider `O=C1Nc2ccc(Cl)nc2C1=Cc1ccc2c(/C=C/c3ccncc3)n[nH]c2c1` (mixture of isomers) [Example A137, (E and Z)-5-chloro-3-((3-((E)-2-(pyridin-4-yl)vinyl)-1H-indazol-6-yl)methylene)-1H-pyrrolo[3,2-b]pyridin-2(3H)-one], for which the IC50 on Aurora A, on Aurora B and at human PLK4 was under 5 µM each time.

In the case of `COC(=O)c1ccc(/C=C/c2n[nH]c3cc(C=C4C(=O)Nc5ncccc54)ccc23)cc1` (mixture of isomers) [Example A143, methyl 4-((E)-2-(6-((E and Z)-(2-oxo-1H-pyrrolo[2,3-b]pyridin-3(2H)-ylidene)methyl)-1H-indazol-3-yl)vinyl)benzoate], the inhibition at 1 µM on Aurora A was over 50%. Besides, the concentration for half-maximal inhibition (IC50) at Aurora B and on human PLK4 was under 5 µM throughout.

With `O=C1Nc2ccc(O)cc2/C1=C\c1ccc2cn[nH]c2c1` [Example A123, (E)-3-((1H-indazol-6-yl)methylene)-5-hydroxyindolin-2-one], the IC50 on Aurora A, on Aurora B and at human PLK4 was under 5 µM in each case.

For the compound `N#Cc1ccc2c(c1)C(=Cc1ccc3c(/C=C/c4ccncc4)n[nH]c3c1)C(=O)N2` (mixture of isomers) [Example A128, (E and Z)-2-oxo-3-((3-((E)-2-(pyridin-4-yl)vinyl)-1H-indazol-6-yl)methylene)indoline-5-carbonitrile], the IC50 at Aurora A, on Aurora B and on human PLK4 was under 5 µM each time.

As to `COC(=O)c1ccc(/C=C/c2n[nH]c3cc(/C=C4\C(=O)Nc5ccccc54)ccc23)cc1` [Example A141, methyl 4-((E)-2-(6-((Z)-(2-oxoindolin-3-ylidene)methyl)-1H-indazol-3-yl)vinyl)benzoate], the inhibition at 1 µM on Aurora A was over 50%. The IC50 at Aurora B and on human PLK4 was under 5 µM each time.

On to `COc1ccc2c(c1)/C(=C\c1ccc3c(/C=C/C(=O)N(C)CCN(C)C)n[nH]c3c1)C(=O)N2` [Example A126, (E)-N-(2-(dimethylamino)ethyl)-3-(6-((E)-(5-methoxy-2-oxoindolin-3-ylidene)methyl)-1H-indazol-3-yl)-N-methylacrylamide 2,2,2-trifluoroacetate], for which, at Aurora A, the inhibition at 10 µM was over 50%. Further, the IC50 at Aurora B and at human PLK4 was under 5 µM throughout.

For `CC(C)(C)OC(=O)Nc1ccc2c(c1)/C(=C\c1ccc3cn[nH]c3c1)C(=O)N2` [Example A12, (E)-tert-butyl 3-((1H-indazol-6-yl)methylene)-2-oxoindolin-5-ylcarbamate], the IC50 at PLK1 was 5 to 50 µM; at human PLK4, under 5 µM.

For the compound `O=C1Nc2cc(-c3cccnc3)ccc2/C1=C\c1ccc2[nH]nnc2c1` [Example A29, (E)-3-((1H-benzo[d][1,2,3]triazol-5-yl)methylene)-6-(pyridin-3-yl)indolin-2-one], the IC50 at PLK1 was over 50 µM; on human PLK4, under 5 µM.

Turning to `Nc1ccc2c(c1)/C(=C\c1ccc3cn[nH]c3c1)C(=O)N2` [Example A15, (E)-3-((1H-indazol-6-yl)methylene)-2-oxoindolin-5-aminium 2,2,2-trifluoroacetate], the figures for the IC50 at PLK1 and at human PLK4 were 5 to 50 µM and under 5 µM, respectively.

With `CC(=O)Nc1ccc2c(c1)/C(=C\c1ccc3nn[nH]c3c1)C(=O)N2` [Example A23, (E)-N-(3-((1H-benzo[d][1,2,3]triazol-5-yl)methylene)-2-oxoindolin-5-yl)acetamide], the IC50 at PLK1 was 5 to 50 µM; at human PLK4, under 5 µM.

As to `O=C1Nc2ccc(OC(F)(F)F)cc2/C1=C\c1ccc2nn[nH]c2c1` [Example A14, (E)-3-((1H-benzo[d][1,2,3]triazol-5-yl)methylene)-5-(trifluoromethoxy)indolin-2-one], the concentration for half-maximal inhibition (IC50) at PLK1 is over 50 µM; at human PLK4, under 5 µM.

For `CN1C(=O)/C(=C/c2ccc3cn[nH]c3c2)c2ccccc21` [Example A34, (E)-3-((1H-indazol-6-yl)methylene)-1-methylindolin-2-one], the IC50 at PLK1 and on human PLK4 was 5 to 50 µM throughout.

As for `COc1ccc2c(c1)C(=Cc1ccc3c(/C=C/c4ccc(CN(C)C)cc4)n[nH]c3c1)C(=O)N2` (stereo in doubt) [Example A136b, (Z)-3-((3-(4-((dimethylamino)methyl)styryl)-1H-indazol-6-yl)-methylene)-5-methoxyindolin-2-one 2,2,2-trifluoroacetate], the IC50 on Aurora A and at Aurora B was under 5 µM each time.

`CS(=O)(=O)Nc1ccc2c(c1)/C(=C\c1ccc3nn[nH]c3c1)C(=O)N2` [Example A24, (E)-N-(3-((1H-benzo[d][1,2,3]triazol-5-yl)methylene)-2-oxoindolin-5-yl)methanesulfonamide]: the IC50 on PLK1 was 5 to 50 µM; at human PLK4, under 5 µM.

Turning to `CN(C)S(=O)(=O)Nc1ccc2c(c1)/C(=C\c1ccc3nn[nH]c3c1)C(=O)N2` [Example A21, N′-[(3E)-3-(1H-benzotriazol-5-ylmethylidene)-2-oxo-2,3-dihydro-1H-indol-5-yl]-N,N-dimethylsulfamide], the figures for the 50% inhibitory concentration (IC50) at PLK1 and on human PLK4 were 5 to 50 µM and under 5 µM, respectively.

Take `CN(C)S(=O)(=O)Nc1ccc2c(c1)/C(=C\c1ccc3cn[nH]c3c1)C(=O)N2` [Example A20, N′-[(3E)-3-(1H-indazol-6-ylmethylidene)-2-oxo-2,3-dihydro-1H-indol-5-yl]-N,N-dimethylsulfamide]: the IC50 at PLK1 and at human PLK4 was under 5 µM each time.

With `CS(=O)(=O)Nc1ccc2c(c1)/C(=C\c1ccc3cn[nH]c3c1)C(=O)N2` [Example A25, (E)-N-(3-((1H-indazol-6-yl)methylene)-2-oxoindolin-5-yl)methanesulfonamide], the IC50 at PLK1 and at human PLK4 was under 5 µM throughout.
